In patent US9694006B2, “Use of pyrroloquinoline compounds to kill clinically latent microorganisms” (HELPERBY THERAPEUTICS LIMITED, priority 2005, dated 2017):

What was measured:
[1] = tested on: E. coli persister bacteria; assay: Bactericidal activity against persistent bacteria (CFU counts), E. coli; conditions: 25 μg/mL of test compound
[2] = tested on: Staph. aureus stationary phase bacteria; assay: Bactericidal activity against stationary-phase cultures (CFU counts), Staph. aureus; assay type: cell-based, Staphylococcus aureus; conditions: 5 μg/mL of test compound

Row | Structure (SMILES) | log kill [1] | log kill [2]
1 | Cc1nc2ccc(Oc3ccccc3)cc2c2c1CCN2Cc1ccccc1 [Example 1(h), 1-Benzyl-4-methyl-8-phenoxy-2,3-dihydro-1H-pyrrolo[3,2-c]quinoline] | 3.83 | 
2 | COc1cc(OC)c2nc(C)c3c(c2c1)N(c1cccc(Oc2ccccc2)c1)CC3.O=C(O)C(F)(F)F [Example 1(a), 6,8-Dimethoxy-4-methyl-1-(3-phenoxyphenyl)-2,3-dihydro-1H-pyrrolo[3,2-c]quinoline trifluoroacetate] |  | 3.55
